Experimental data published in ChEMBL document CHEMBL4330055, “Development of Inhibitors of the Programmed Cell Death-1/Programmed Cell Death-Ligand 1 Signaling Pathway” (J Med Chem, 2019).
Where a SMILES comes first, the peptide text is derived from it. Bridges are numbered along the chain shown (N, C = ends).

biological target: T1, Programmed cell death protein 1/Programmed cell death 1 ligand 1 (Homo sapiens, UniProt Q15116+Q9NZQ7); test: Inhibition of PD1/PDL1 (unknown origin) interaction by HTRF assay; format: protein-complex assay
T1 sequence (Q15116 whole entry): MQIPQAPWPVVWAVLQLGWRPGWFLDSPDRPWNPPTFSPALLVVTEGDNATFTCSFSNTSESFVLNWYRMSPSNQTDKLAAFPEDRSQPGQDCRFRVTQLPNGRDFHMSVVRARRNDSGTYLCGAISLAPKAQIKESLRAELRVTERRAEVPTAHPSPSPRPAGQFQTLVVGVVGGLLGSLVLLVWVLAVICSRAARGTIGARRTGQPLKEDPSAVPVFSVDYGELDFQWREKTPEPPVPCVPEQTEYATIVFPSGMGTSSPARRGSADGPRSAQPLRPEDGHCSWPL
T1 sequence (Q9NZQ7 whole entry): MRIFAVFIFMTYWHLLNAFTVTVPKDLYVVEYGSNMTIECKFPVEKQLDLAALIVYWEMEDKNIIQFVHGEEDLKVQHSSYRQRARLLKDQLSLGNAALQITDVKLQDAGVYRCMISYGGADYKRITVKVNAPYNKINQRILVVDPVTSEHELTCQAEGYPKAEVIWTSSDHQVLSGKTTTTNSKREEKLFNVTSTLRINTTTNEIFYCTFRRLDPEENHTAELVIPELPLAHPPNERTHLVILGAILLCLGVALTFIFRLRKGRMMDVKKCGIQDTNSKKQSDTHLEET

Row | Molecule | IC50 [nM]
1 | Cc1c(/C=C/c2ncc(CNC(CO)C(=O)O)cc2C(F)(F)F)cccc1-c1ccc2c(c1)OCCO2 (configuration not stated) | 36

biological target: T1, Programmed cell death protein 1/Programmed cell death 1 ligand 1; test: Inhibition of PD1/PDL1 (unknown origin) interaction at 10 uM after 15 mins by HTRF assay relative to control; format: protein-complex assay

Row | Molecule | inhibition [%]
2 | COc1ccc(Nc2cc(C(=O)Nc3ccc(Oc4ccccc4)cc3)ccn2)cc1 | 36

biological target: T1, Programmed cell death protein 1/Programmed cell death 1 ligand 1; test: Inhibition of PD1/PDL1 (unknown origin) at 500 uM after 15 mins by HTRF assay relative to control; format: protein-complex assay

Row | Molecule | inhibition [%]
3 | CN(C)CCOc1ccc([N+](=O)[O-])c(OC(=O)N(C)C)c1 | 43

biological target: T2, Programmed cell death 1 ligand 1 (Homo sapiens, UniProt Q9NZQ7); test: Binding affinity to Fc-labeled human PDL1 expressed in Escherichia coli by SPR spectroscopy
T2 sequence (Q9NZQ7 whole entry): as above

Row | Molecule | Kd [nM]
4 | H-KHAHHTHNLRLP-OH | 1130
5 | C[C@@H](O)[C@H](NC(=O)[C@@H]1CCCN1C(=O)[C@H](CCCCN)NC(=O)[C@H](CO)NC(=O)[C@H](Cc1ccc(O)cc1)NC(=O)[C@@H](N)CC(N)=O)C(=O)N[C@@H](CC(=O)O)C(=O)N[C@@H](CCCNC(=N)N)C(=O)N[C@@H](CCC(N)=O)C(=O)N[C@@H](Cc1ccc(O)cc1)C(=O)N[C@@H](Cc1cnc[nH]1)C(=O)N[C@@H](Cc1ccccc1)C(=O)O | 510
6 | H-MRNRERYPKPYY-OH | 22000

biological target: T2, Programmed cell death 1 ligand 1; test: Binding affinity to biotinylated PDL1 (unknown origin) expressed in Escherichia coli OmpX membrane after 45 mins by SAPE-fluorescence based flow cytometry; format: cell membranes

Row | Molecule | Kd [nM]
7 | C[C@H](NC(=O)[C@H](Cc1ccc(O)cc1)NC(=O)[C@H](CCC(N)=O)NC(=O)CNC(=O)[C@@H](N)CO)C(=O)N[C@@H](CO)C(=O)N[C@@H](Cc1ccc(O)cc1)C(=O)N[C@@H](Cc1cnc[nH]1)C(=O)N[C@@H](CS)C(=O)N[C@@H](Cc1c[nH]c2ccccc12)C(=O)N[C@@H](CS)C(=O)N[C@@H](Cc1c[nH]c2ccccc12)C(=O)N[C@@H](CCCNC(=N)N)C(=O)N[C@@H](CC(=O)O)C(=O)N1CCC[C@H]1C(=O)NCC(=O)N[C@@H](CCCNC(=N)N)C(=O)N[C@@H](CO)C(=O)NCC(=O)NCC(=O)N[C@@H](CO)C(=O)N[C@@H](CCCCN)C(=O)O (H-SGQYASYHCWCWRDPGRSGGSK-OH) | 94

biological target: Programmed cell death 1 ligand 1 (Mus musculus) (UniProt Q9EP73); test: Inhibition of PDL1 in C57BL6 mouse splenocytes assessed as protection against ant-CD3/CD28-stimulated cell proliferation at 100 nM after 4 hrs by CFSE-based FACS analysis relative to control
Sequence (Q9EP73 whole entry): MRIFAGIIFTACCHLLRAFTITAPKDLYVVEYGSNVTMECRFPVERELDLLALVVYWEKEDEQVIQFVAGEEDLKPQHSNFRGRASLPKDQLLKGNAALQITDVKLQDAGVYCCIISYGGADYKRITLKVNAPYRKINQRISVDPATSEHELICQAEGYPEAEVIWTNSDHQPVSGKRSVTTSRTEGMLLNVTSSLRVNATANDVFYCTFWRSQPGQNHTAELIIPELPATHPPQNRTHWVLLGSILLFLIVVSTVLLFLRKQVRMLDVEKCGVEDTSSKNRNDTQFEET

Row | Molecule | inhibition [%]
8 | NC(=O)C[C@H](NC(=O)[C@@H]1C[C@H](O)CN1)c1nc(N2CCCC2)no1 | 91
9 | C[C@@H](O)[C@@H](NC(=O)N[C@@H](CC(N)=O)c1nc([C@@H](N)CO)no1)C(=O)O | 97
10 | NCCCC[C@H](NC(=O)N[C@@H](CC(N)=O)C(=O)NNC(=O)[C@@H](N)CO)C(=O)O | 87
11 | COCCNC(=O)CC[C@H](NS(=O)(=O)C1CC1)c1nnc(-c2ccccc2OC)o1 | 97
12 | C[C@@H](O)C(NC(=O)[C@H](CCC(=O)O)NC(=O)[C@@H](N)CO)C(=O)N[C@H](CO)C(=O)N[C@H](CCCCN)C(=O)N[C@H](CO)CN[C@H](Cc1ccccc1)C(N)=O (single isomer, unassigned) | 81
13 | C[C@@H](O)[C@H](N)c1nnc([C@H](CCC(N)=O)NC(=O)N[C@@H](CO)C(=O)O)o1 | 92
14 | C[C@@H](O)[C@@H]1C(=O)N[C@H](CO)C(=O)N[C@H](C(=O)N[C@@H](CO)C(=O)N[C@@H](Cc2ccccc2)C(N)=O)CCCCNC(=O)CC[C@H](NC(=O)[C@@H](N)CO)C(=O)N1C | 82
15 | C[C@@H](O)[C@@H]1NC(=O)N[C@@H](C(N)=O)C(=O)NNC(=O)[C@@H](CO)NC(=O)COCCOCCNC1=O | 95
16 | C[C@@H](O)[C@@H]1NC(=O)COCCOCCNC(=O)[C@@H](CO)NC(=O)N[C@H](C(N)=O)C(=O)NNC1=O | 94
17 | C[C@@H](O)[C@H](N)c1noc([C@H](Cc2ccc(O)cc2)NC(=O)N2CCC[C@H]2C(=O)O)n1 | 99

biological target: T3, V-type immunoglobulin domain-containing suppressor of T-cell activation (Homo sapiens) (UniProt Q9H7M9); test: Inhibition of VISTA signaling in human PBMC assessed as IFNgamma release at 100 nM after 30 mins by ELISA
T3 sequence (whole entry): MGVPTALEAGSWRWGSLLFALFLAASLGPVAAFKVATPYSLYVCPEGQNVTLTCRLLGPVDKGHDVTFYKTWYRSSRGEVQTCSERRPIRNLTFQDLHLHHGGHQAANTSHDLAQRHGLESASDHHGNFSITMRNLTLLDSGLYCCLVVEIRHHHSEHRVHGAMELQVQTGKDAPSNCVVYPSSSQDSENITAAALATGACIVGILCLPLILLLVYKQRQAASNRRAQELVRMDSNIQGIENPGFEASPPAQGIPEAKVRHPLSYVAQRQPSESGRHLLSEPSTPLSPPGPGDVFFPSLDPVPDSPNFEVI

Row | Molecule | inhibition [%]
18 | C[C@@H](O)[C@@H](NC(=O)N[C@@H](CC(N)=O)c1nc([C@@H](N)CO)no1)C(=O)O | > 70
19 | C[C@@H](O)[C@H](NC(=O)N[C@@H](CC(N)=O)c1nc([C@@H](N)Cc2ccccc2)no1)C(=O)O | 99

biological target: T1, Programmed cell death protein 1/Programmed cell death 1 ligand 1; test: Inhibition of recombinant human PD1 (25 to 167 residues)/human PDL1 (19 to 238 residues) interaction after 40 mins by HTRF assay; format: protein-complex assay

Row | Molecule | IC50 [nM]
20 | N#Cc1c(Nc2nccc3cc(CNCCO)cnc23)cccc1C1=CCCCC1 | ≤ 100
21 | COc1cc2oc(-c3cccc(-c4ccccc4)c3C)nc2cc1CNCCO | ≤ 100
22 | Cc1c(-c2ccccc2)cccc1-c1cc2ccc(CNCCO)cn2n1 | ≤ 100
23 | N#Cc1c(-c2ccc3c(c2)OCCO3)cccc1N1CCC(NC2CCCOC2)CC1 (configuration not stated) | ≤ 100
24 | Cc1cc(C(=O)Nc2cccc(-c3ccccc3)c2C)ncc1CNCCO | ≤ 100
25 | N#Cc1c(NC(=O)c2nc3c(s2)CNCC3)cccc1-c1ccc2c(c1)OCC2 | ≤ 100
26 | Cc1c(-c2ccccc2)cccc1-n1cc2c(n1)CNCC2 | ≤ 100

biological target: T1, Programmed cell death protein 1/Programmed cell death 1 ligand 1; test: Inhibition of PD1/PDL1 interaction in human jurkat cells co-expressing TCR promoter assessed as TCR activation by luciferase reporter gene assay; format: cell-based

Row | Molecule | EC50 [µM]
27 | CC[C@H](C)[C@@H]1NC(=O)[C@H](CC(C)C)NC(=O)[C@H](Cc2ccccc2)NC(=O)CSC[C@@H](C(=O)NCC(N)=O)NC(=O)[C@H](CCCNC(=N)N)NC(=O)[C@H](Cc2ccccc2)NC(=O)[C@H](C(C)C)NC(=O)[C@H](CCCNC(=N)N)NC(=O)[C@H](CC(=O)O)NC(=O)[C@H](CCCNC(=N)N)NC(=O)[C@H]([C@@H](C)CC)NC(=O)[C@H](C(C)C)NC1=O ({CH2CO}-FLIVIRDRVFRCG-NH2; thioether N-12) | 6.3
